Measured values taken from ChEMBL document CHEMBL1909046, “DrugMatrix in vitro pharmacology data”.

Legend:
[1] = target: Vascular endothelial growth factor receptor 1 (Homo sapiens, UniProt P17948); assay: biochemical; assay type: cell-based, HUVEC; details: huvec; note: in other assays of this panel Not Active means under 50% inhibition at 10 µM
[2] = DRUGMATRIX: Potassium Channel [KATP] radioligand binding (ligand: [3H] Glyburide); assay type: cell membranes, Membrane; details: hit-t15; Not Active = under 50% inhibition at 10 µM
Acetylcholinesterase = Acetylcholinesterase (Homo sapiens, UniProt P22303); assay: DRUGMATRIX: Acetylcholinesterase enzyme inhibition (substrate: acetylthiocholine); assay type: cell-based, HEK293; details: hek293; Not Active = under 50% inhibition at 10 µM
Androgen receptor = target: T1, Androgen receptor (Rattus norvegicus, UniProt P15207); note: in other assays of this panel Not Active means under 50% inhibition at 10 µM
T1 sequence (P15207 whole entry): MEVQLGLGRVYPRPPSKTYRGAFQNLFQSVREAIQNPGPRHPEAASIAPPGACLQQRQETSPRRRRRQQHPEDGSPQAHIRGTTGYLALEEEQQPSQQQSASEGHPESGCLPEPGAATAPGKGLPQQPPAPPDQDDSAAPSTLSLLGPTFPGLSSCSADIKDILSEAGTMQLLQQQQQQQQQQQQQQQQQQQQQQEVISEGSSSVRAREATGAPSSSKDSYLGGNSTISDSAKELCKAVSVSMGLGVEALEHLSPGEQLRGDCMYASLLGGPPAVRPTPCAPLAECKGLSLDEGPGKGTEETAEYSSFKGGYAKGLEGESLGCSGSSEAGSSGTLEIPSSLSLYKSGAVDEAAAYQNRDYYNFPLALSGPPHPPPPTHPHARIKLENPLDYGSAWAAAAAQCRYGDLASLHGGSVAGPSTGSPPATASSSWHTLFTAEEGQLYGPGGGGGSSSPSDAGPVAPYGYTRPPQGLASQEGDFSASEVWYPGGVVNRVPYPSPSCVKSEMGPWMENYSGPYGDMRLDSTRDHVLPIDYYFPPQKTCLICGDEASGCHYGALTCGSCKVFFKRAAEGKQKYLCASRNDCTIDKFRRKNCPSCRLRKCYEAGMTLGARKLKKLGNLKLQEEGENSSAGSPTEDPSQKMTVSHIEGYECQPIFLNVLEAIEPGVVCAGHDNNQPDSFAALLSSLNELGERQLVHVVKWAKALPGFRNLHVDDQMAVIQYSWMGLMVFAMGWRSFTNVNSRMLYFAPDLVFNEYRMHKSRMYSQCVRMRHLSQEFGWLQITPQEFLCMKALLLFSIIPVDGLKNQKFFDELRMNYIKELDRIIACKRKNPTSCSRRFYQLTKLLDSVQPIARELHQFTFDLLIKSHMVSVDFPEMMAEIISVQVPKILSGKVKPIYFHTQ

Mu-type opioid receptor = Mu-type opioid receptor (Homo sapiens, UniProt P35372); assay: DRUGMATRIX: Opiate mu (OP3, MOP) radioligand binding (ligand: [3H] Diprenorphine); assay type: cell membranes, CHO-K1, Membrane; details: cho-k1; Not Active = under 50% inhibition at 10 µM
[3] = DRUGMATRIX: GABAA, Muscimol, Central radioligand binding (ligand: [3H] Muscimol); assay type: cell membranes, Rattus norvegicus, Wistar, Brain, Membrane; details: Not Active = under 50% inhibition at 10 µM

Sequence of Mu-type opioid receptor (P35372 whole entry): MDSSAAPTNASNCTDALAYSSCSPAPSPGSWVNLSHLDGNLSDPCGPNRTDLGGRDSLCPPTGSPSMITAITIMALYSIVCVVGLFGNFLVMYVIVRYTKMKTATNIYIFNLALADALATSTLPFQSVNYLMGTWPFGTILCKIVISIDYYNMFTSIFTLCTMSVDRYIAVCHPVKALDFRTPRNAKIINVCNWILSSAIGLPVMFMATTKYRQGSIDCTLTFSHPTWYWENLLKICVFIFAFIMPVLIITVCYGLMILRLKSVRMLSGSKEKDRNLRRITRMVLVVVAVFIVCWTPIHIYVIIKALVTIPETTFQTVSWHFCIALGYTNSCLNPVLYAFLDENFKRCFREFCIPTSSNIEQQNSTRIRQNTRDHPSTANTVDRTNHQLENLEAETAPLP
Sequence of Vascular endothelial growth factor receptor 1 (P17948 whole entry): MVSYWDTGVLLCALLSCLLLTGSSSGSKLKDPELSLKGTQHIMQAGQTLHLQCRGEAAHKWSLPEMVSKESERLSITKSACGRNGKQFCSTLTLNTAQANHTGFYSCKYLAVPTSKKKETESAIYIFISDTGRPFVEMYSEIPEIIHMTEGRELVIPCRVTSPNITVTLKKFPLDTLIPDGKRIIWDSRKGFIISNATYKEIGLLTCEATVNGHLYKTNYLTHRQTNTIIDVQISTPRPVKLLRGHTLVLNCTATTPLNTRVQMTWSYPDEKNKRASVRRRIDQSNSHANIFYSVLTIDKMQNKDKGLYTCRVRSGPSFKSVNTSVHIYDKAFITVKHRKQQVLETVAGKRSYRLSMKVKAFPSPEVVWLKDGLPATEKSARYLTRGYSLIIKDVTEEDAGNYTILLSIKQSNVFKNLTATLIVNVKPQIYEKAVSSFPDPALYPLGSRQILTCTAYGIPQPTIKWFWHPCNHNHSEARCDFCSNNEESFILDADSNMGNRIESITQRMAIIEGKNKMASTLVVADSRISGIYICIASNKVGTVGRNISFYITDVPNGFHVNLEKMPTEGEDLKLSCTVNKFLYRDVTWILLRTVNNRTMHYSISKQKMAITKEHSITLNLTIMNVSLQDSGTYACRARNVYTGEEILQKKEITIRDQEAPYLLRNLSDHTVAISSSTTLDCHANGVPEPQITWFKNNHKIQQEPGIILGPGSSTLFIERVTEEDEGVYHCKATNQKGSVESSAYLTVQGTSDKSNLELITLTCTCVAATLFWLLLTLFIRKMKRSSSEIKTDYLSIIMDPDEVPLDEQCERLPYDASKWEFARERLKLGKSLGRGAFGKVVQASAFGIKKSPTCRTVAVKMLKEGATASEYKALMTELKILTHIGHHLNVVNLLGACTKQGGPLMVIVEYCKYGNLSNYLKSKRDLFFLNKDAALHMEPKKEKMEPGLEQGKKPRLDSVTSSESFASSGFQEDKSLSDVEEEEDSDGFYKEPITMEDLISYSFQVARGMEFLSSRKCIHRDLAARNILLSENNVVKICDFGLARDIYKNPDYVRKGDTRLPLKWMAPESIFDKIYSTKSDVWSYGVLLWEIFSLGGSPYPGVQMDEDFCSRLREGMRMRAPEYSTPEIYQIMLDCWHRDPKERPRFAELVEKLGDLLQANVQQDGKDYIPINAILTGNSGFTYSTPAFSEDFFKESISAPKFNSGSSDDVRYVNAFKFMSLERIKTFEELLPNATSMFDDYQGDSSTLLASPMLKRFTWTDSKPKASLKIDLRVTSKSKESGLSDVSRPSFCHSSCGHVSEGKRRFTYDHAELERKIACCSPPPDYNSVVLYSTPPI
Sequence of Acetylcholinesterase (P22303 whole entry): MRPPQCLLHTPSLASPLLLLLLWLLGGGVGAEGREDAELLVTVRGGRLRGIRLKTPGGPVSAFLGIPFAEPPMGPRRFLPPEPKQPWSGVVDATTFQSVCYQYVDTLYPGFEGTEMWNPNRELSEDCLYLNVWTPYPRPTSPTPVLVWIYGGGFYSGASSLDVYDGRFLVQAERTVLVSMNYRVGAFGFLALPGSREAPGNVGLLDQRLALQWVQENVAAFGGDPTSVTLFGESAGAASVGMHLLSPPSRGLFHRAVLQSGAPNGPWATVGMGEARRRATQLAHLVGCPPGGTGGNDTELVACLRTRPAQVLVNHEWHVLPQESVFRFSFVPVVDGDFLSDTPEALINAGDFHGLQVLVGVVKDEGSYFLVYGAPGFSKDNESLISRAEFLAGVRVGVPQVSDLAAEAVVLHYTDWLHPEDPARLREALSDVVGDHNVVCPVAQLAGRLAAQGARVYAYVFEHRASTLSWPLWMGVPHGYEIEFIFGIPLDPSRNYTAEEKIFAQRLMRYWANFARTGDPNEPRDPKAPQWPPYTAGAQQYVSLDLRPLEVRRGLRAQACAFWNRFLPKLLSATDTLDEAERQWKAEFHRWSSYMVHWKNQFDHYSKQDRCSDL

CC(C)NCC(O)COc1cccc2[nH]ccc12 (centres undefined) [PINDOLOL]
Not Active: IC50 [1] | IC50 [2] | Ki [2] | IC50 (Acetylcholinesterase) | IC50 (Androgen receptor) | IC50 (Mu-type opioid receptor) | IC50 [3] | Ki [3]

CCn1cc(C(=O)O)c(=O)c2cnc(N3CCCC3)nc21 [PIROMIDIC ACID]
Not Active: IC50 [1] | IC50 [2] | Ki [2] | IC50 (Acetylcholinesterase) | IC50 (Mu-type opioid receptor) | IC50 [3] | Ki [3]

C[n+]1ccccc1/C=N/O.[Cl-] [PRALIDOXIME CHLORIDE]
Not Active: IC50 [1] | IC50 [2] | Ki [2] | IC50 (Acetylcholinesterase) | IC50 (Mu-type opioid receptor) | IC50 [3] | Ki [3]

COc1cc2nc(N3CCN(C(=O)c4ccco4)CC3)nc(N)c2cc1OC [PRAZOSIN]
Not Active: IC50 [1] | IC50 [2] | Ki [2] | IC50 (Acetylcholinesterase) | IC50 (Mu-type opioid receptor) | IC50 [3] | Ki [3]

C[C@]12C=CC(=O)C=C1CC[C@@H]1[C@@H]2[C@@H](O)C[C@@]2(C)[C@H]1CC[C@]2(O)C(=O)CO [PREDNISOLONE]
Not Active: IC50 [1] | IC50 [2] | Ki [2] | IC50 (Acetylcholinesterase) | IC50 (Mu-type opioid receptor) | IC50 [3] | Ki [3]

CCCNCC(O)COc1ccccc1C(=O)CCc1ccccc1 (centres undefined) [PROPAFENONE]
Not Active: IC50 [1] | IC50 [2] | Ki [2] | IC50 (Acetylcholinesterase) | IC50 (Mu-type opioid receptor) | IC50 [3] | Ki [3]

CCCOc1ccc(C(=O)OCCN(CC)CC)cc1N [PROPARACAINE]
Not Active: IC50 [1] | IC50 [2] | Ki [2] | IC50 (Acetylcholinesterase) | IC50 (Mu-type opioid receptor) | IC50 [3] | Ki [3]

C[C@@H]1O[C@@H](O[C@@H]2C=C3CC[C@@H]4[C@H](CC[C@]5(C)[C@@H](c6ccc(=O)oc6)CC[C@]45O)[C@@]3(C)CC2)[C@H](O)[C@H](O)[C@H]1O [PROSCILLARIDIN]
Not Active: IC50 [1] | IC50 [2] | Ki [2] | IC50 (Acetylcholinesterase) | IC50 (Androgen receptor) | IC50 [3] | Ki [3]

Oc1cccc(O)c1O [PYROGALLOL]
Not Active: IC50 [1] | IC50 [2] | Ki [2] | IC50 (Acetylcholinesterase) | IC50 (Mu-type opioid receptor) | IC50 [3] | Ki [3]

AURANOFIN
Not Active: IC50 [1] | Ki [1] | IC50 [2] | Ki [2] | IC50 (Acetylcholinesterase) | Ki (Acetylcholinesterase) | IC50 (Androgen receptor) | Ki (Androgen receptor) | IC50 [3] | Ki [3]

GADOPENTETATE DIMEGLUMINE
Not Active: IC50 [1] | Ki [1] | IC50 [2] | Ki [2] | IC50 (Acetylcholinesterase) | Ki (Acetylcholinesterase) | IC50 (Androgen receptor) | Ki (Androgen receptor) | IC50 [3] | Ki [3]

GENTAMICIN
Not Active: IC50 [1] | Ki [1] | IC50 [2] | Ki [2] | IC50 (Acetylcholinesterase) | Ki (Acetylcholinesterase) | IC50 (Androgen receptor) | Ki (Androgen receptor) | IC50 [3] | Ki [3]

GRAMICIDIN
Not Active: IC50 [1] | Ki [1] | IC50 [2] | Ki [2] | IC50 (Acetylcholinesterase) | Ki (Acetylcholinesterase) | IC50 (Androgen receptor) | Ki (Androgen receptor) | IC50 [3] | Ki [3]

NYSTATIN
Not Active: IC50 [1] | Ki [1] | IC50 [2] | Ki [2] | IC50 (Acetylcholinesterase) | Ki (Acetylcholinesterase) | IC50 (Androgen receptor) | Ki (Androgen receptor) | IC50 [3] | Ki [3]
